Converted amounts (≈) assume the structure as drawn. Values belong to the molecule of their own block, whether it stands above or below them.
What was measured:
Streptococcus pneumoniae [1] = settings: Streptococcus pneumoniae ATCC 10015; reference antibiotic according to WHONET; cited from earlier work
Acinetobacter guillouiae = Acinetobacter guillouiae ATCC 11171; reference antibiotic according to WHONET; in µg/mL; cited from earlier work
Shigella flexneri [2] = tested on: Shigella flexneri; parameters: unit not given beside the values; settings: Shigella flexneri ATCC 11836; reference antibiotic according to WHONET; cited from earlier work
Shigella boydii [3] = tested on: Shigella boydii; parameters: unit not given beside the values; settings: Shigella boydii ATCC 12027; reference antibiotic according to WHONET; cited from earlier work
Staphylococcus Aureus = Staphylococcus Aureus ATCC 29737; reference antibiotic according to WHONET; in µg/mL; cited from earlier work
Enterococcus faecalis = Enterococcus faecalis ATCC 29212; reference antibiotic according to WHONET; in µg/mL; cited from earlier work
Mycobacterium smegmatis = test: Determination of the Minimum Inhibitory Concentration, M. smegmatis; assay type: cell-based; settings: Mycolicibacterium smegmatis, ATCC607; M. smegmatis (ATCC 607), 72 h incubation, 1×10^5 CFU/ml inoculum
Method: (§1) The Minimum Inhibitory Concentration (MIC), which is defined as the lowest antimicrobial agent concentration inhibiting the visible growth of a microorganism following its incubation, was subsequently determined.
(§2) For the purpose of such determination, the compounds under study were tested on the strains listed in Table 3 with the antibiotics (AB) stated as reference in the table.
(§3) The test was conducted on a plate on the basis of a 1×10^5 CFU/ml inoculum concentration, with negative, positive and sterility controls being simultaneously performed. Different concentrations of the compounds under study were tested, as shown on the last column included in Table 3 (working solution).
(§4) Following incubation at 32.5±2.5° C. for a 24 h period (48 h in the case of C. sporogenes and 72 h in the case of M. smegmatis), the plates were visually read. The appearance of turbidity and/or the formation of a growth point at the microtube bottom were held as a positive result.

Clostridium sporogenes = test: Determination of the Minimum Inhibitory Concentration, C. sporogenes; assay type: cell-based; settings: ATCC19404, C. sporogenes (ATCC 19404), 48 h incubation, 1×10^5 CFU/ml inoculum
Method: as §1, §2, §3, §4

Streptococcus pneumoniae [4] = test: Determination of the Minimum Inhibitory Concentration, S. pneumoniae; assay type: cell-based; settings: ATCC10015, S. pneumoniae (ATCC 10015), 24 h incubation, 1×10^5 CFU/ml inoculum
Method: as §1, §2, §3, §4

Shigella flexneri [5] = test: Determination of the Minimum Inhibitory Concentration, S. flexneri; assay type: cell-based; settings: ATCC11836, S. flexneri (ATCC 11836), 24 h incubation, 1×10^5 CFU/ml inoculum
Method: as §1, §2, §3, §4

Shigella boydii [6] = test: Determination of the Minimum Inhibitory Concentration, S. boydii; assay type: cell-based; settings: ATCC12027, S. boydii (ATCC 12027), 24 h incubation, 1×10^5 CFU/ml inoculum
Method: as §1, §2, §3, §4

Structure (SMILES): CC1(C)S[C@@H]2[C@H](NC(=O)[C@H](N)c3ccccc3)C(=O)N2[C@H]1C(=O)O [Ampicillin (sodium), Ampicillin]
- MIC (for WHO antibiotics) (Streptococcus pneumoniae [1]): ≦0.5

Structure (SMILES): COc1ccc(C=CC(=O)N2CCN(C(=O)C=Cc3ccc(OC)c(C(F)F)c3)CC2)cc1C(F)F [Example 6, N,N′-bis[3-(difluoromethyl)-4-methoxy-cinnamoyl]piperazine]
- melting point: 259 to 261 °C

Structure (SMILES): CN(C)c1ccc(O)c2c1C[C@H]1C[C@H]3[C@H](N(C)C)C(O)=C(C(N)=O)C(=O)[C@@]3(O)C(O)=C1C2=O [Minocyclin]
- MIC (for WHO antibiotics) (Acinetobacter guillouiae): 0.06-8.0

Structure (SMILES): C[C@@H]1O[C@@H]1P(=O)(O)O [Phosphomycin]
- MIC (for WHO antibiotics) (Shigella flexneri [2]): ≦4.0
- MIC (for WHO antibiotics) (Shigella boydii [3]): ≦4.0

Structure (SMILES): CN[C@H](CC(C)C)C(=O)N[C@H]1C(=O)N[C@@H](CC(N)=O)C(=O)N[C@H]2C(=O)N[C@H]3C(=O)N[C@H](C(=O)N[C@H](C(=O)O)c4cc(O)cc(O)c4-c4cc3ccc4O)[C@H](O)c3ccc(c(Cl)c3)Oc3cc2cc(c3O[C@@H]2O[C@H](CO)[C@@H](O)[C@H](O)[C@H]2O[C@H]2C[C@](C)(N)[C@H](O)[C@H](C)O2)Oc2ccc(cc2Cl)[C@H]1O [Vancomycin]
- MIC (for WHO antibiotics) (Staphylococcus Aureus): 0.5-2.0
- MIC (for WHO antibiotics) (Enterococcus faecalis): 1.0-4.0

Structure (SMILES): COc1ccc(/C=C/C(=O)NNC(=O)c2ccncc2)cc1C(F)F [compound 4]
- MIC (Mycobacterium smegmatis): 64 µg/mL (≈ 184 µM)
- MIC (Clostridium sporogenes): 64 µg/mL (≈ 184 µM)

Structure (SMILES): COc1ccc(/C=C/C(=O)NC(C)C)cc1O [compound 10]
- MIC (Shigella flexneri [5]): 32 µg/mL (≈ 136 µM)
- MIC (Shigella boydii [6]): 32 µg/mL (≈ 136 µM)

Results, then the molecule that gave them:

- melting point: 119 °C
Structure (SMILES): COc1ccc(C=CC(=O)N2CCOCC2)cc1C(F)F [Example 12, N-[3-(difluoromethyl)-4-methoxy-cinnamoyl]morpholine]

- MIC (Mycobacterium smegmatis): 64 µg/mL (≈ 211 µM)
Structure (SMILES): COc1ccc(/C=C/C(=O)Nc2ccccc2)cc1C(F)F [compound 1]

- MIC (Mycobacterium smegmatis): 8 µg/mL (≈ 29.7 µM)
Structure (SMILES): COc1ccc(/C=C/C(=O)NC(C)C)cc1C(F)F [compound 2]

- MIC (Mycobacterium smegmatis): 32 µg/mL (≈ 113 µM)
Structure (SMILES): COc1ccc(/C=C/C(=O)NCC(C)C)cc1C(F)F [compound 5]

- MIC (Mycobacterium smegmatis): 8 µg/mL (≈ 26.9 µM)
- MIC (Streptococcus pneumoniae [4]): 64 µg/mL (≈ 215 µM)
Structure (SMILES): COc1ccc(/C=C/C(=O)NCCC(C)C)cc1C(F)F [compound 6]

- MIC (Streptococcus pneumoniae [4]): 64 µg/mL (≈ 129 µM)
Structure (SMILES): COc1ccc(/C=C/C(=O)NCCCNC(=O)/C=C/c2ccc(OC)c(C(F)F)c2)cc1C(F)F [compound 7]

- MIC (Mycobacterium smegmatis): 32 µg/mL (≈ 146 µM)
Structure (SMILES): COc1ccc(/C=C/C(=O)NC(C)C)cc1 [compound 8]

- MIC (Mycobacterium smegmatis): 32 µg/mL (≈ 137 µM)
Structure (SMILES): COc1ccc(/C=C/C(=O)NC(C)C)cc1C [compound 9]

- MIC (Mycobacterium smegmatis): 64 µg/mL (≈ 215 µM)
Structure (SMILES): CC(=O)Oc1ccc(/C=C/C(=O)NC(C)C)cc1C(F)F [entry 3]

— patent publication US9255071B2, “Compounds having antibacterial activity, process for their preparation and pharmaceutical compositions comprising them” (Consejo Nacional de Investigaciones Cientificas y Técnicas …, priority 2012, dated 2016)
